ChEMBL document CHEMBL1153745, “The Caulerpa pigment caulerpin inhibits HIF-1 activation and mitochondrial respiration” (J Nat Prod, 2009)
Calls of active or inactive are those of the source.

Legend:
HUVEC [1] = assay: Antiangiogenic activity in human HUVEC cells assessed as decrease in branch point number up to 30 uM after 18 hrs by Matrigel based tube formation assay; type: functional, cell-based
MDA-MB-231 [2] = assay: Cytotoxicity against human MDA-MB-231 cells up to 30 uM after 22 hrs by neutral red method; type: cell-based; conditions: mda-mb-231, 22 h
HUVEC [3] = assay: Antiangiogenic activity in human HUVEC cells assessed as decrease in tube length up to 30 uM after 18 hrs by Matrigel based tube formation assay; type: functional, cell-based
T47D [4] = assay: Inhibition of electron transport protein complex 1 in digitonin-permeabilized human T47D cells assessed as decrease in oxygen consumption at 30 uM by mitochondrial respiration assay; type: cell-based
[5] = molecular target: T1, Hypoxia inducible factors; HIF-1-alpha, HIF-2-alpha (Homo sapiens) (UniProt Q16665+Q99814); assay: Inhibition of 1,10-phenanthroline-induced HIF1 activation in human T47D cells after 16 hrs by pTK-HRE3-luciferase reporter gene assay; type: cell-based
[6] = molecular target: T1, Hypoxia inducible factors; HIF-1-alpha, HIF-2-alpha (Homo sapiens); assay: Inhibition of 1,10-phenanthroline-induced HIF1 activation in human T47D cells at 1 uM after 16 hrs by pTK-HRE3-luciferase reporter gene assay; type: cell-based
[7] = molecular target: T1, Hypoxia inducible factors; HIF-1-alpha, HIF-2-alpha (Homo sapiens); assay: Inhibition of hypoxia-induced HIF1 activation in human T47D cells at 1 uM after 16 hrs by pTK-HRE3-luciferase reporter gene assay; type: cell-based
T47D [8] = assay: Cytotoxicity against human T47D cells under hypoxic conditions at 30 uM after 16 hrs; type: cell-based
T47D [9] = assay: Effect on luciferase expression in hypoxia-stimulated human T47D cells expressing pGL3 construct at 30 uM after 16 hrs by reporter gene assay; type: functional
T47D [10] = assay: Inhibition of hypoxia-induced VEGF mRNA expression in human T47D cells at 30 uM after 16 hrs by RT-PCR; type: functional, cell-based
T47D [11] = assay: Inhibition of hypoxia-induced GLUT1 mRNA expression in human T47D cells at 30 uM after 16 hrs by RT-PCR; type: functional, cell-based
T47D [12] = assay: Inhibition of hypoxia-induced VEGF mRNA expression in human T47D cells at 10 uM after 16 hrs by RT-PCR; type: functional, cell-based
T47D [13] = assay: Inhibition of hypoxia-induced GLUT1 mRNA expression in human T47D cells at 10 uM after 16 hrs by RT-PCR; type: functional, cell-based
T47D [14] = assay: Inhibition of 1,10-phenanthroline-induced VEGF mRNA expression in human T47D cells at 30 uM after 16 hrs by RT-PCR; type: functional, cell-based
T47D [15] = assay: Inhibition of 1,10-phenanthroline-induced GLUT1 mRNA expression in human T47D cells at 30 uM after 16 hrs by RT-PCR; type: functional, cell-based
T47D [16] = assay: Inhibition of hypoxia-induced secreted VEGF protein level in human T47D cells at 10 uM after 16 hrs by ELISA; type: functional, cell-based
T47D [17] = assay: Inhibition of secreted VEGF protein level in human T47D cells under normoxic conditions at 10 uM after 16 hrs by ELISA; type: functional, cell-based
HUVEC [18] = assay: Antiangiogenic activity in human HUVEC cells assessed as inhibition of hypoxic T47D cell-conditioned media-induced tube formation at 10 uM after 18 hrs by Matrigel based tube formation assay; type: functional
HUVEC [19] = assay: Antiangiogenic activity in human HUVEC cells assessed as inhibition of hypoxic T47D cell-conditioned media-induced tube formation at 30 uM after 18 hrs by Matrigel based tube formation assay; type: functional
HUVEC [20] = assay: Antiangiogenic activity in human HUVEC cells assessed as inhibition of normoxic T47D cell-conditioned media-induced tube formation at 30 uM after 18 hrs by Matrigel based tube formation assay; type: functional
MDA-MB-231 [21] = assay: Inhibition of cell migration in human MDA-MB-231 cells under normoxic conditions after 22 hrs by wound-healing assay; type: functional, cell-based
MDA-MB-231 [22] = assay: Inhibition of cell migration in human MDA-MB-231 cells under hypoxic conditions after 22 hrs by wound-healing assay; type: functional, cell-based
MDA-MB-231 [23] = assay: Cytotoxicity against human MDA-MB-231 cells under hypoxic conditions up to 30 uM after 22 hrs by neutral red method; type: cell-based; conditions: mda-mb-231, 22 h
MDA-MB-231 [24] = assay: Growth inhibition of human MDA-MB-231 cells at 1 uM to 30 uM after 48 hrs by sulforhodamine B assay; type: functional, cell-based
DU-145 = assay: Growth inhibition of human DU145 cells at 1 uM to 30 uM after 48 hrs by sulforhodamine B assay; type: functional, cell-based
T47D [25] = assay: Growth inhibition of human T47D cells at 1 uM to 30 uM after 48 hrs by sulforhodamine B assay; type: functional, cell-based
MCF7 = assay: Growth inhibition of human MCF7 cells at 1 uM to 30 uM after 48 hrs by sulforhodamine B assay; type: functional, cell-based
PC-3 = assay: Growth inhibition of human PC3 cells at 30 uM after 48 hrs by sulforhodamine B assay; type: functional; conditions: PC-3, 48 h, read-out: GI
[26] = Growth inhibition of human HMEC cells up to 30 uM after 48 hrs by sulforhodamine B assay; type: cell-based; conditions: read-out: GI
T47D [27] = assay: Inhibition of hypoxia-induced nuclear HIF1alpha accumulation in human T47D cells at 10 uM after 4 hrs by Western blot analysis; type: functional, cell-based
T47D [28] = assay: Inhibition of 1,10-phenanthroline-induced nuclear HIF1alpha accumulation in human T47D cells at 10 uM after 4 hrs by Western blot analysis; type: functional, cell-based
T47D [29] = assay: Inhibition of hypoxia-induced nuclear HIF1beta accumulation in human T47D cells at 10 uM after 4 hrs by Western blot analysis; type: functional, cell-based
T47D [30] = assay: Inhibition of electron transport protein complex 1 in human T47D cells assessed as reduction of oxygen consumption at 10 uM; type: cell-based
T47D [31] = assay: Inhibition of electron transport protein complex 1 in human T47D cells assessed as reduction of oxygen consumption at 30 uM; type: cell-based
T47D [32] = assay: Inhibition of electron transport protein complex 1 in human T47D cells assessed as reduction of oxygen consumption at 30 uM pretreated for 2 hrs relative to untreated control; type: cell-based
T47D [33] = assay: Inhibition of electron transport protein complex 1 in digitonin-induced permeable human T47D cells assessed as reduction of oxygen consumption at 30 uM relative to control; type: cell-based
T47D [34] = assay: Inhibition of electron transport protein complex 1 in human T47D cells assessed as decrease in oxygen consumption at 30 uM pretreated for 2 hrs before malate and pyruvate addition by mitochondrial respiration assay; type: cell-based
T47D [35] = assay: Inhibition of electron transport protein complex 2 in human T47D cells assessed as decrease in oxygen consumption at 30 uM pretreated for 2 hrs before succinate addition by mitochondrial respiration assay; type: cell-based
T47D [36] = assay: Inhibition of electron transport protein complex 3 in human T47D cells assessed as decrease in oxygen consumption at 30 uM pretreated for 2 hrs before succinate addition by mitochondrial respiration assay; type: cell-based
T47D [37] = assay: Inhibition of electron transport protein complex 4 in human T47D cells assessed as decrease in oxygen consumption at 30 uM pretreated for 2 hrs before TMPD/ascorbate addition by mitochondrial respiration assay; type: cell-based
T47D [38] = assay: Inhibition of cellular respiration in human T47D cells assessed as oxygen consumption; type: functional, cell-based

COC(=O)/C1=C/c2c([nH]c3ccccc23)/C(C(=O)OC)=C\c2c1[nH]c1ccccc21 [CAULERPIN]
52%: inhibition of growth at 30 µM (PC-3)
57%: inhibition (T47D [33])
<=10%: Activity (T47D [9])
15%: Activity (MDA-MB-231 [2]) | Activity (MDA-MB-231 [23])
inactive: Activity (T47D [12]) | Activity (T47D [13]) | Activity (T47D [14]) | Activity (T47D [15]) | Activity (T47D [17]) | Activity (HUVEC [20]) | Activity (DU-145) | Activity (T47D [28]) | Activity (T47D [29]) | Activity (T47D [30]) | Activity (T47D [35]) | Activity (T47D [36]) | Activity (T47D [37])
87%: inhibition (T47D [32])
30%: inhibition (T47D [31])
<= 10%: Activity (T47D [8])
active: Activity (HUVEC [1]) | Activity (HUVEC [3]) | Activity (T47D [4]) | Activity [5] Dose-dependent effect | Activity [6] | Activity [7] | Activity (T47D [10]) | Activity (T47D [11]) | Activity (T47D [16]) | Activity (HUVEC [18]) | Activity (HUVEC [19]) | Activity (MDA-MB-231 [21]) Dose-dependent effect | Activity (MDA-MB-231 [22]) Dose-dependent effect | Activity (MDA-MB-231 [24]) | Activity (T47D [25]) | Activity (MCF7) | Activity (T47D [27]) | Activity (T47D [34]) | Activity (T47D [38]) Dose-dependent effect
< 25%: inhibition at 48 h [26]
